Source: US4450115A, “Amino-alcohol derivatives” (Kyowa Hakko Kogyo Co., Ltd., priority 1979, dated 1984)
Where two headings read alike, the source gives them in different places.

Columns and labels:
in vivo = details: mouse, male dd-strain mice
Description: The test compounds were orally administered to male dd-strain mice weighing 20-25 g.

Effect on heart rate = format: in vivo, mongrel dogs; details: Table 7; dogs, 1 mg/kg, femoral vein
Experimental: (§1) In experiments (a), (b), (c) and (d), 3-4 male or female mongrel dogs (weight: 10-20 Kg) as one group were anesthetized by intravenous administration of 30 mg/kg of pentobarbital-Na. All compounds were dissolved in polyethylene glycol 400 and administered to the femoral vein.
(d) Effect on heart rate (beats/min.)

[1] = tested on: main artery of the dogs' organ; experiment: Effect on organ blood flow; format: in vivo, mongrel dogs; details: Canis lupus familiaris, iv, Table 7, femoral vein;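 also: percent change relative to blood flow before compound administration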
Experimental: as §1
(b) Effect on organ blood flow M (%)
In this test, 1 mg/kg of each compound shown in Tables 5 and 7 is administered to the dogs and an electromagnetic probe is attached to the main artery of the dogs' organ to measure the flow of blood.

[2] = tested on: main artery of the dogs' organ; experiment: Effect on organ blood flow; format: in vivo, mongrel dogs; details: Canis lupus familiaris, iv, Table 5, 0.1 mg administration, femoral vein;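 also: percent change relative to blood flow before compound administration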
β2-adrenergic receptor = experiment: β2 blocking activity (inhibition of Isoproterenol-induced decrease in diastolic blood pressure); format: in vivo, mongrel dogs; details: Table 6; dogs, *dose of compound 1 mg/kg; 0.5 μg/kg Isoproterenol i.v.
Experimental: as §1
(c-3) β2 blocking activity
In this test, 0.5 μg/kg of Isoproterenol is intravenously administered to the dogs to cause a decrease in diastolic blood pressure.

α-adrenergic receptor = experiment: α blocking activity (inhibition of Norepinephrine-induced increase in systolic blood pressure); format: in vivo, mongrel dogs; details: Table 6; dogs, *dose of compound 1 mg/kg; 3 μg/kg Norepinephrine i.v.
Experimental: as §1
(c-1) α blocking activity
In this test, 3 μg/kg of Norepinephrine is intravenously administered to the dogs to cause an increase in systolic blood pressure.

β1-adrenergic receptor = experiment: β1 blocking activity (inhibition of Isoproterenol-induced increase in heart rate); format: in vivo, mongrel dogs; details: Table 6; dogs, *dose of compound 1 mg/kg; 0.5 μg/kg Isoproterenol i.v.
Experimental: as §1
(c-2) β1 blocking activity
In this test, 0.5 μg/kg of Isoproterenol is intravenously administered to the dogs to cause an increase in the heart rate.

[3] = read-out: Organ blood flow, Crotch (percentage change)
[4] = read-out: Organ blood flow, Malleus (percentage change)

SMILES | LD50 (in vivo; Table 7, oral) [mg/kg] | Heart rate (decrease) (Effect on heart rate) [beats/min.] | change in vivo at 1 mg/kg [1, 3] [%] | change in vivo at 1 mg/kg [1, 4] [%] | also measured
CCCC(=O)Nc1ccc(OCC(O)CNCCN(Cc2ccccc2)C(C)COc2ccccc2)c(C(C)=O)c1 (stereo not drawn) [Compound 28, 1-(4-butyrylamido-2-acetylphenoxy)-3-{β-[N-benzyl-N-(1-methyl-2-phenoxyethyl)]aminoethyl} amino-2-propanol] | 1000 to 2000 | -8 | 4 | 61 | 
Cc1cccc(OCC(O)CNCCN(Cc2ccccc2)C(C)COc2ccccc2)c1 (stereo not drawn) [Compound 29, 1-(3-methylphenoxy)-3-{β-[N-benzyl-N-(1-methyl-2-phenoxyethyl)]aminoethyl} amino-2-propanol] |  | -4 | -45 | 100 | 
CC(COc1ccccc1)N(CCNCC(O)COc1ccc(CC(N)=O)cc1)Cc1ccccc1 (stereo not drawn) [Compound 30, 1-(4-carbamoylmethylphenoxy)-3-{β-[N-benzyl-N-(1-methyl-2-phenoxyethyl)]aminoethyl} amino-2-propanol] |  | -5 | -19 | 10 | 
CCOC(=O)Cc1ccc(OCC(O)CNCCN(Cc2ccccc2)C(C)COc2ccccc2)cc1 (stereo not drawn) [Compound 26, 1-(4-ethoxycarbonylmethylphenoxy)-3-{β-[N-benzyl-N-(1-methyl-2-phenoxyethyl)]aminoethyl}amino-2-propanol] | > 1000 | -20 | -12 | 67 | 
CCCC(=O)Nc1ccc(OCC(O)CNCC2COc3ccccc3O2)c(C(C)=O)c1 (stereo not shown) [Compound 4, 1-(4-butyrylamido-2-acetyl)phenoxy-3-(1,4-benzodioxane-2-methaneamino)-2-propanol] |  |  |  |  | LD50 (in vivo; Table 5, oral): > 1000 mg/kg; change in vivo at 0.1 mg [2, 3]: -18%; change in vivo at 0.1 mg [2, 4]: -46%
CC(=O)Nc1ccc(OCC(O)CNCCN(Cc2ccccc2)C(C)COc2ccccc2)cc1 (stereo not drawn) [Compound 27, 1-(4-acetamidophenoxy)-3-{β-[N-benzyl-N-(1-methyl-2-phenoxyethyl)]aminoethyl} amino-2-propanol] | > 1000 | -13 | 3 | 100 | 
CC(CCc1ccccc1)NCC(O)COc1ccccc1C#N (stereo not shown) [Compound 12, 1-(2-cyanophenoxy)-3-(1-methyl-3-phenylpropylamino)-2-propanol] |  |  |  |  | LD50 (in vivo; Table 6, oral): 125 to 250 mg/kg; β2 blocking activity, percentage inhibition (β2-adrenergic receptor): -100%; α blocking activity, percentage inhibition (α-adrenergic receptor): -52%; β1 blocking activity, percentage inhibition (β1-adrenergic receptor): -100%
